Assay results published in patent US7022712B2, “Solubilization of weak bases” (Arizona Board of Regents on Behalf of the University of …, priority 2002, dated 2006).
Converted amounts (≈) assume the structure as drawn. Where two headings read alike, the source gives them in different places.

Key:
physchem [1] = type: physicochemical; conditions: for solubility at 10 days: thermodynamic from solid
Source text: The buffer systems used for the pH-solubilization profile were 0.01 M sodium citrate/HCl with pH range 1.2–4.0, 0.01 M citrate-phosphate-borate/HCl with pH range 4.0–8.0, and 0.01M glycine/NaOH with pH range 8.0–12.0. In all the above mentioned buffers the ionic strength was maintained at 0.1M using sodium chloride. The effect of buffer species on the solubility of carbendazim at very low and high pH was not observed because the Ksp of each salt was not reached. Solubility at different pH was determined in the same manner as described below.
(§1) An excess amount of carbendazim was added to vials containing 2 ml of an aqueous solution of pH 2.00±0.15 and 7.00±0.15 at different concentrations (0, 1, 2.5, 5, and 10%) of cosolvents (EtOH, PG, PEG 400, and Glycerol), surfactants (Tween 20, Tween 80, sodium lauryl sulfate (SLS), and myristoyl camitine (MC)) and cyclodextrins (HPβCD and SBEβCD). In addition the cosolvents and cyclodextrins were studied at 20%. The sample vials were rotated at 20 rpm using an end-over-end mechanical rotator (Glas-Col Laboratory rotator, Terre Haute, Ind.) at ambient temperature for 10 days. Ten days was selected to ensure equilibrium because the strong crystal structure and high melting point (305° C.) (Budavari, S., 1996. The Merck Index, Twelfth ed. Merck & Co, New Jersey) of carbendazim contributes to a very slow dissolution rate. For solutions having pH greater than 9, the solubility was measured after 3 days rotation instead of 10 days because of the unstable nature of carbendazim in alkaline condition. The samples were filtered through a 0.45-μm filter and the pH at equilibrium was measured before performing HPLC analysis.
(§2) The HPLC assay used an Econosphere C8 column (150*4.6 mm, Alltech, Los Altos, Calif.) with a mobile phase composed of pure methanol. The flow rate was controlled at 1.0 ml/min (125 solvent Module, Beckman, Fullerton, Calif.) and the effluent was detected at 280 nm (168 detector, Beckman, Fullerton, Calif.). All experimental data are the average of duplicate values with an average error less than 3%.
The formation of a resonance-stabilized cation and anion is believed responsible for the high solubilities at low and high pH that are shown in FIG. 2. […] FIGS. 7–9 show the pH profile of three other drugs, obtained using analogous methods.

physchem [2] = type: physicochemical; conditions: thermodynamic from solid, Solubility of carbendazim
Description: as §1, with “Ten days was selected to ensure equilibrium because the strong crystal structure and high melting point (305° C.) (Budavari, S., 1996. The Merck Index, Twelfth ed. Merck & Co, New Jersey) of carbendazim contributes to a very slow dissolution rate.” left out
as §2, with “All experimental data are the average of duplicate values with an average error less than 3%.” left out

in vivo = conditions: mouse
Source text: The bioavailability of carbendazim was studied in the mouse. An intravenous dose, a formulation of carbendazim in corn oil, and a formulation of carbendazim in phosphoric acid corresponding to the phosphoric acid concentration in Emetrol were each given to a mouse. The blood level on the graph is indicative of the amount of drug absorbed divided by the blood volume of the mouse.

[3] = listed for preferred weak bases, no method given; cited from earlier work

COC(=O)Nc1nc2ccccc2[nH]1 [carbendazim, methyl 2-benzimidazolecarbamate]
intrinsic solubility (physchem [1]; 10 days): 6.11 µg/mL
pKa (physchem [1]; acidic pKa): 10.6
pKa (physchem [1]; basic pKa): 4.5
solubility at 10 days (physchem [1]; pH 1, aqueous buffer): 16000 µg/mL (≈ 83.7 mM)
solubility at 10 days (physchem [1]; pH 2, aqueous buffer): 1600 µg/mL (≈ 8.37 mM)
solubility at 10 days (physchem [2]; pH 2, aqueous buffer): 1640 µg/mL (≈ 8.58 mM)
solubility at 10 days (physchem [2]; pH 7, aqueous buffer): 6 µg/mL (≈ 0.0314 mM)
Cmax (in vivo; iv, 6.4 ug): 15000 ng/mL
bioavailability (in vivo; iv, 6.4 ug): 100%

Corn oil
% Bioavailability (in vivo; po, 132 mg): 4.8–6.4%
Cmax (in vivo; po, 132 mg): 15000 to 20000 ng/mL

Cc1cc(NC(=O)NC(=O)c2ccccc2N(C)C)ccc1Oc1ncc(N)cn1
pKa [3]: ~5
